Measurements taken from US12268676B2, “Antiviral applications of picolinic acid and its derivatives” (INDIAN INSTITUTE OF SCIENCE, priority 2021, dated 2025).
Read-outs that look alike come from different tables or passages of the source.

Tests used:
[1] = system: Influenza virus (NS1 Luc); assay: microbe, parasite or virus in culture; format: cell-based, Influenza A virus; conditions: unidentified influenza virus, A549, read-out: inhibition of virus (luminescence, percentage of untreated virus control)
[2] = system: Para Influenza virus (HPIV Luc); assay: microbe, parasite or virus in culture; format: cell-based, Human parainfluenza virus; conditions: unidentified influenza virus
[3] = system: Herpes Simplex virus 1 (HSV1 Luc); assay: microbe, parasite or virus in culture; format: cell-based; conditions: Human alphaherpesvirus 1, A549, 48 h, read-out: inhibition in reporter virus assay
[4] = system: Japanese Encephalitis Virus (JEV) clinical strain P20778; assay: JEV infection, western blot of flavivirus envelope protein; format: cell-based; conditions: 2 mM PA
IAV PR8 WT strain = format: in vivo, BALB/c mice
[5] = system: pseudotyped SARS CoV-2 particles; assay: microbe, parasite or virus in culture; format: cell-based
[6] = system: SARS-CoV-2 (isolate hCoV-19/Hong Kong/VM20001061/2020); assay: SARS-CoV-2 multi-cycle infection, viral RNA by qRT-PCR; format: cell-based; conditions: for decrease in total viral RNA copy numbers: 0.01 MOI, 48 hr (FIG. 6)
[7] = system: Influenza A viruses (IAVs); assay: microbe, parasite or virus in culture; format: cell-based, Influenza A virus
Dengue virus (DENV Luc) = assay: microbe, parasite or virus in culture; format: cell-based; conditions: A549, 48 h, read-out: inhibition (luciferase, normalized with untreated control)
SARS-CoV-2 = assay: SARS CoV-2 time of addition assay (IFA for spike, western blot); format: cell-based; conditions: for virus replication mitigated (spike positive cells, IFA): 10 MOI
PR8 WT virus = assay: IAV time of addition assay (IFA for NP, western blot), Example 10; format: cell-based, Influenza A virus; conditions: for inhibition at 2000 µM: Influenza A virus
SARS-CoV-2 spike protein = assay: SARS-CoV-2 spike induced syncytia assay; format: cell-based; conditions: Severe acute respiratory syndrome coronavirus 2, Vero C1008, 24 h, read-out: inhibition of syncytia (area, percentage of untreated control)
[8] = system: R18 labelled PR8 WT virus; assay: Influenza virus membrane fusion assay (R18 fluorescence); format: cell-based, Influenza A virus
[9] = system: Tf647 labelled endocytic vesicles; assay: Localization of transferrin labelled vesicles, confocal microscopy; format: cell-based; conditions: VeroE6, 2 mM PA, 100 MOI PR8 WT virus
Protocol: Localization of transferrin labelled vesicles: Vero cells were seeded on glass coverslips in a 12 well dish to reach 70-80% confluency next day. After 3 hr treatment/not with 2 mM PA, cells were washed once with ice cold PBS and the plate was placed on ice for 10 min before incubating with OptiMEM containing PR8 wild type virus (100 MOI) and 25 μg/mL Transferrin 647 (Tf-647) for 1 hr on ice. Cells were washed twice with PBS and the plate moved to 37° C. After a 15 min chase, cells were fixed with 4% PFA, labelled with anti influenza virus HA antibody (PY102) followed by anti-mouse Alexa 488 secondary antibody to label the virus particles. Nuclei were labelled using 0.1 μg/mL DAPI. Images were acquired using a Zeiss LSM-880 Multiphoton microscope.
The dispersion of transferrin labelled vesicles from perinuclear region to cell periphery was quantified by drawing region of interests (ROIs) up to 20 μm away from the nuclei. The fluorescence intensity of Tf-647 labelled vesicles was then measured along this distance using ImageJ/Fiji.

PR8 WT virus particles = system: PR8 WT virus particles; design: species or system Influenza A virus
Coxsackie virus B3 = Coxsackie virus B3 infection of HeLa cells, western blot for VP1; format: cell-based
Protocol: The effects of PA against non-enveloped viruses were tested to see if PA would be effective against non-enveloped viruses as well. To this end, HeLa cells were either pre-treated for 3 hr with 2 mM PA, infected with 10 MOI Coxsackie virus B3 in presence of PA and collected 3 hr later (−3 hr); or treated during infection (T0); or virus and PA were incubated together for 1 hr and used for infection (1 hr virus+PA).
Coxsackie virus B3 infection: To study early effects of PA, HeLa cells were pre-treated for 3 hr, infected with 10 MOI CVB3, and collected at 3 hr post infection. Alternatively, cells were infected and treated simultaneously (T0) and collected after 3 hr. Also, a mixture of virus and drug incubated for 1 hr (1 hr PA+Virus) was used for infection to test the effects of PA on virus particles. No additional drug was added here post infection. Expression levels of VP1 protein was then detected by western blot analysis.

M. smegmatis cells = assay: Bacterial toxicity assay, OD600; format: cell-based, Mycobacterium smegmatis; conditions: up to 24 hr, least concentration tested
Protocol: Since most of the naked viruses tested were not inhibited by PA, whether PA would be effective against TM4 mycobacteriophages. M. smegmatis cells in a 48 well plate were treated with increasing concentrations of PA as indicated and OD600 measurements were taken periodically up to 24 hr. […] For the antiviral assay, 1 mM PA was either added at the start of experiment or 3 hr prior to infection. In either case, there was no protection from TM4 mycobacteriophage induced cell death (FIG. 12, panel G).
Bacterial toxicity assay: PA stock solution of 1M concentration was prepared in sterile deionized water and diluted to obtain different concentrations (1 mM, 5 mM, 10 Mm, 20 mM, and 40 mM), in a 48-well plate. A total of 2×10^5 cells of M. smegmatis were added to each of the wells. The 48-well plate was placed in a rotary shaker incubator at 37° C. for 24 h. Readings were taken periodically using a Tecan Spark multi-mode plate reader at 600 nm.

[10] = mouse, in vivo

O=C(O)c1ccccn1 [PA, pyridine-2-carboxylic acid]
inhibition at 2000 µM [1]: 70 to 80% | inhibition at 2000 µM ([2]; A549, 48 h, read-out: inhibition in reporter virus assay): 80 to 90% | inhibition at 2000 µM ([2]; A549, read-out: inhibition of virus (luminescence, percentage of untreated virus control)): 70 to 80% | inhibition at 2000 µM [3]: 80 to 90% | flavivirus envelope protein by western blot ([4]; 0.1 MOI, 48 hr post infection (FIG. 7K)): inhibition | decrease in the flavivirus envelope protein expression (western blot) ([4]; VeroE6 cells, 48 hr post infection, normalized against actin): 0.75 fold | decrease in virus titre from lung tissue (plaque assay) compared to untreated (IAV PR8 WT strain; 20 mg PA, 72 hr post infection): Over 10 fold | body weight loss after IAV infection (IAV PR8 WT strain; animals infected in the presence of 100 mg PA): 30% | body weight loss after IAV infection (IAV PR8 WT strain; mouse, in vivo): minimal loss in body weight | decrease in survival rate (IAV PR8 WT strain; mouse, in vivo): significantly reduced | more effective than CM [5]: ~10% | inhibition at 2000 µM ([5]; Severe acute respiratory syndrome coronavirus 2, 60 h, read-out: inhibition of SARS-CoV-2 spike pseudotyped particles (firefly luciferase normalized to virus control)): 90% | inhibition at 2000 µM ([5]; Severe acute respiratory syndrome coronavirus 2, read-out: inhibition of pseudotyped SARS CoV-2 virus entry): > 50% | decrease in total viral RNA copy numbers ([6]; Calu3, 2 mM PA): ~1 log10 | reduction in viral load ([6]; Calu3, 2 mM PA, 0.1 MOI, 48 hr (FIG. 7E)): 2 log | decrease in total viral RNA copy numbers ([6]; HEK ACE2, 2 mM PA): three | decrease in total viral RNA copy numbers ([6]; VeroE6, 2 mM PA): three | reduction in virus titer [7]: 3 fold | inhibition at 2000 µM ([7]; Influenza A virus, PR8, MDCK2, 48 h, read-out: maximum inhibition of infectious virus (plaque assay)): 50% | inhibition at 2000 µM (Dengue virus (DENV Luc)): > 90% | inhibition of virus (IFA, western blot) (SARS-CoV-2; HEK ACE2, PA added 6 hr post infection, collected 3 hr later): ~50% | inhibition of virus (IFA, western blot) (SARS-CoV-2; HEK ACE2, no pre-treatment, infected in presence of drug (T0)): almost no inhibition | virus replication mitigated (spike positive cells, IFA) (SARS-CoV-2; HEK ACE2, pre-treated 3 hr with 2 mM PA (-3 hr)): > 80% | inhibition of virus (IFA, western blot) (SARS-CoV-2; VeroE6, PA added 6 hr post infection, collected 3 hr later): no inhibition | inhibition of virus (IFA, western blot) (SARS-CoV-2; VeroE6, no pre-treatment, infected in presence of drug (T0)): almost no inhibition | virus replication mitigated (spike positive cells, IFA) (SARS-CoV-2; VeroE6, pre-treated 3 hr with 2 mM PA (-3 hr)): > 80% | NP positive cells (IFA) (PR8 WT virus): No differences | inhibition at 2000 µM (PR8 WT virus; PR8, 1 h, read-out: inhibition (IFA for nucleoprotein and western blot)): 50% | inhibition at 2000 µM (PR8 WT virus; PR8, A549, 3 h, read-out: inhibition (IFA, NP)): 80% | inhibition at 1000 µM (SARS-CoV-2 spike protein): 70% | inhibition at 2000 µM (SARS-CoV-2 spike protein): 80% | virus-entry associated increase in fluorescence intensity [8]: able to inhibit | distance of Tf647 labelled endocytic vesicles from the nuclei [9]: 15-20 microns | virion structural integrity by TEM compared to untreated control (PR8 WT virus particles): severe disruption of viral envelope | effect on virus entry (VP1 western blot) (Coxsackie virus B3; incubation of virus with drug 1 hr prior to infection): did not have any effects | effect on virus entry (VP1 western blot) (Coxsackie virus B3; pre-treatment 3 hr with 2 mM PA, 10 MOI): did not have any effects | effect on virus entry (VP1 western blot) (Coxsackie virus B3; treatment at the time of infection (T0)): did not have any effects | non-toxic concentration (OD600) (M. smegmatis cells): 1 mM | toxicity (bodyweight changes over 9 days) [10]: toxic | body weight vs PBS treated control ([10]; ip): no differences in body weight | decrease in total body weight ([10]; ip): 10-12%
